From PubChem BioAssay AID1963848 (Molecular Pharmacology Branch, DTP, NCI, 2024)

Tested on: 379773-124-R-J2-PDC spheroid viability
Experiment: Anticancer human tumor 379773-124-R-J2-PDC patient-derived endometrial carcinoma cell line growth inhibition [POLQ]
Details: spheroids with HUVEC and MSC; for IC50: curve of first compound; for viability, T/C: stronger effect = lower value; active = viability on the fitted dose curve at most 10% of control; inactive = the rest
How it was run: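 Complex spheroid viability model combining PDC tumour cells with endothelial (HUVEC) and MSC stromal cells. Novobiocin, ART-558 or RP6685 were tested singly and in combination with standard and investigational anticancer drugs. Each was titrated in half-log steps from near clinical Cmax, or from 10 microM where Cmax was unknown.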

[1] = second compound 0.0316 µM, first compound 0.0316 µM
[2] = second compound 0.0316 µM, first compound 0.1 µM
[3] = second compound 0.0316 µM, first compound 0.316 µM
[4] = second compound 0.0316 µM, first compound 1 µM
[5] = second compound 0.0316 µM, first compound 3.16 µM
[6] = second compound 0.0316 µM, first compound 10 µM
[7] = second compound 0.1 µM, first compound 0.0316 µM
[8] = second compound 0.1 µM, first compound 0.1 µM
[9] = second compound 0.1 µM, first compound 0.316 µM
[10] = second compound 0.1 µM, first compound 1 µM
[11] = second compound 0.1 µM, first compound 3.16 µM
[12] = second compound 0.1 µM, first compound 10 µM
[13] = second compound 0.316 µM, first compound 0.0316 µM
[14] = second compound 0.316 µM, first compound 0.1 µM
[15] = second compound 0.316 µM, first compound 0.316 µM
[16] = second compound 0.316 µM, first compound 1 µM
[17] = second compound 0.316 µM, first compound 3.16 µM
[18] = second compound 0.316 µM, first compound 10 µM
[19] = second compound 1 µM, first compound 0.0316 µM
[20] = second compound 1 µM, first compound 0.1 µM
[21] = second compound 1 µM, first compound 0.316 µM
[22] = second compound 1 µM, first compound 1 µM
[23] = second compound 1 µM, first compound 3.16 µM
[24] = second compound 1 µM, first compound 10 µM
[25] = second compound 3.16 µM, first compound 0.0316 µM
[26] = second compound 3.16 µM, first compound 0.1 µM
[27] = second compound 3.16 µM, first compound 0.316 µM
[28] = second compound 3.16 µM, first compound 1 µM
[29] = second compound 3.16 µM, first compound 3.16 µM
[30] = second compound 3.16 µM, first compound 10 µM
[31] = second compound 10 µM, first compound 0.0316 µM
[32] = second compound 10 µM, first compound 0.1 µM
[33] = second compound 10 µM, first compound 0.316 µM
[34] = second compound 10 µM, first compound 1 µM
[35] = second compound 10 µM, first compound 3.16 µM
[36] = second compound 10 µM, first compound 10 µM
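Note: spheroids exposed to drugs for seven days before readout.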
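Throughout, for viability, T/C: percent viability relative to DMSO vehicle control taken as 100%.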

C=CC(=O)N1CCN(c2nc(=O)n(-c3c(C)ccnc3C(C)C)c3nc(-c4c(O)cccc4F)c(F)cc23)C(C)C1 (stereo not drawn) + Cc1cccc(N(C)C(=O)C2C(O)CCN2c2nc(C)cc(C(F)(F)F)c2C#N)c1
inactive: viability, T/C [1] 88.5% | viability, T/C [2] 89.8% | viability, T/C [3] 82% | viability, T/C [4] 105% | viability, T/C [5] 77.1% | viability, T/C [6] 76.2% | viability, T/C [7] 84.9% | viability, T/C [8] 77.8% | viability, T/C [9] 87.7% | viability, T/C [10] 74.4% | viability, T/C [11] 80.4% | viability, T/C [12] 86.1% | viability, T/C [13] 91% | viability, T/C [14] 70.4% | viability, T/C [15] 82.8% | viability, T/C [16] 85% | viability, T/C [17] 95.8% | viability, T/C [18] 75.7% | viability, T/C [19] 80% | viability, T/C [20] 81.1% | viability, T/C [21] 95.2% | viability, T/C [22] 75.2% | viability, T/C [23] 87.4% | viability, T/C [24] 64.2% | viability, T/C [25] 84.4% | viability, T/C [26] 90.3% | viability, T/C [27] 87.3% | viability, T/C [28] 86.3% | viability, T/C [29] 86.6% | viability, T/C [30] 78.9% | viability, T/C [31] 78% | viability, T/C [32] 82.1% | viability, T/C [33] 91.8% | viability, T/C [34] 73.5% | viability, T/C [35] 82.8% | viability, T/C [36] 84.3%
> 10 µM: IC50 (second compound 0.0316 µM) | IC50 (second compound 0.1 µM) | IC50 (second compound 0.316 µM) | IC50 (second compound 1 µM) | IC50 (second compound 3.16 µM) | IC50 (second compound 10 µM)

CC(C)n1c(=O)n(C)c2cnc3cc(F)c(-c4ccc(OCCCN5CCCCC5)nc4)cc3c21 + Cc1cccc(N(C)C(=O)C2C(O)CCN2c2nc(C)cc(C(F)(F)F)c2C#N)c1
inactive: viability, T/C [1] 89.1% | viability, T/C [2] 76.9% | viability, T/C [3] 83.4% | viability, T/C [4] 77.9% | viability, T/C [5] 83% | viability, T/C [6] 59.9% | viability, T/C [7] 88.8% | viability, T/C [8] 77.1% | viability, T/C [9] 77.2% | viability, T/C [10] 79.9% | viability, T/C [11] 98.7% | viability, T/C [12] 65.8% | viability, T/C [13] 80.3% | viability, T/C [14] 89.8% | viability, T/C [15] 75.9% | viability, T/C [16] 73.6% | viability, T/C [17] 79.7% | viability, T/C [18] 65.1% | viability, T/C [19] 84% | viability, T/C [20] 75.1% | viability, T/C [21] 80.1% | viability, T/C [22] 73.1% | viability, T/C [23] 79.1% | viability, T/C [24] 69.8% | viability, T/C [25] 73.7% | viability, T/C [26] 75.3% | viability, T/C [27] 75.3% | viability, T/C [28] 64.4% | viability, T/C [29] 72% | viability, T/C [30] 72.1% | viability, T/C [31] 78.7% | viability, T/C [32] 79.5% | viability, T/C [33] 89.2% | viability, T/C [34] 73.9% | viability, T/C [35] 70.3% | viability, T/C [36] 56.1%
> 10 µM: IC50 (second compound 0.0316 µM) | IC50 (second compound 0.1 µM) | IC50 (second compound 0.316 µM) | IC50 (second compound 1 µM) | IC50 (second compound 3.16 µM) | IC50 (second compound 10 µM)

CCc1cc2c(N3CCc4c(cc(Cn5ccnc5)cc4-c4cn(C)nc4C(F)(F)F)C3=O)ccnc2c(OC)n1 + Cc1cccc(N(C)C(=O)C2C(O)CCN2c2nc(C)cc(C(F)(F)F)c2C#N)c1
> 10 µM: IC50 (second compound 0.0316 µM) | IC50 (second compound 0.1 µM) | IC50 (second compound 0.316 µM) | IC50 (second compound 1 µM) | IC50 (second compound 3.16 µM)
inactive: viability, T/C [1] 76.1% | viability, T/C [2] 68.8% | viability, T/C [3] 73% | viability, T/C [4] 63.2% | viability, T/C [5] 59.1% | viability, T/C [6] 54.5% | viability, T/C [7] 81.9% | viability, T/C [8] 71.1% | viability, T/C [9] 64.3% | viability, T/C [10] 69.6% | viability, T/C [11] 55.2% | viability, T/C [12] 50% | viability, T/C [13] 71.9% | viability, T/C [14] 85.3% | viability, T/C [15] 70.2% | viability, T/C [16] 64.8% | viability, T/C [17] 55.5% | viability, T/C [18] 53% | viability, T/C [19] 83.6% | viability, T/C [20] 68.9% | viability, T/C [21] 65% | viability, T/C [22] 63.7% | viability, T/C [23] 55.9% | viability, T/C [24] 50.2% | viability, T/C [25] 73.5% | viability, T/C [26] 80.8% | viability, T/C [27] 60.9% | viability, T/C [28] 65.2% | viability, T/C [29] 58.8% | viability, T/C [30] 55.7% | viability, T/C [31] 69.6% | viability, T/C [32] 68.2% | viability, T/C [33] 62% | viability, T/C [34] 57.9% | viability, T/C [35] 50.1% | viability, T/C [36] 44.2%
3.73 µM: IC50 (second compound 10 µM)

COc1ccc([C@@H](O)c2cc(-c3ncnc4cc(N5CCOCC5)ccc34)c(F)cc2Cl)nn1 + Cc1cccc(N(C)C(=O)C2C(O)CCN2c2nc(C)cc(C(F)(F)F)c2C#N)c1
6.19 µM: IC50 (second compound 10 µM)
6.33 µM: IC50 (second compound 0.0316 µM)
inactive: viability, T/C [1] 81.3% | viability, T/C [2] 83.6% | viability, T/C [3] 94.3% | viability, T/C [4] 96.3% | viability, T/C [5] 75% | viability, T/C [6] 33.5% | viability, T/C [7] 87% | viability, T/C [8] 89.6% | viability, T/C [9] 92% | viability, T/C [10] 87.1% | viability, T/C [11] 64.1% | viability, T/C [12] 37.9% | viability, T/C [13] 81.5% | viability, T/C [14] 82.1% | viability, T/C [15] 101% | viability, T/C [16] 82.4% | viability, T/C [17] 73% | viability, T/C [18] 39.8% | viability, T/C [19] 97.2% | viability, T/C [20] 85.4% | viability, T/C [21] 92% | viability, T/C [22] 81.8% | viability, T/C [23] 83.8% | viability, T/C [24] 33.4% | viability, T/C [25] 87.3% | viability, T/C [26] 85.5% | viability, T/C [27] 96.7% | viability, T/C [28] 74.8% | viability, T/C [29] 81.6% | viability, T/C [30] 35% | viability, T/C [31] 74.8% | viability, T/C [32] 78.5% | viability, T/C [33] 85.2% | viability, T/C [34] 80% | viability, T/C [35] 82.2% | viability, T/C [36] 28.4%
6.79 µM: IC50 (second compound 1 µM)
5.88 µM: IC50 (second compound 0.1 µM)
7 µM: IC50 (second compound 0.316 µM)
6.78 µM: IC50 (second compound 3.16 µM)
